Test results as given in publication PMC5218480 (PLoS ONE, 2017).

Tested on: MV-4-11 cells
Test: Gene expression microarray analysis (Affymetrix PrimeView) and GSEA
Format: cell-based, human
Parameters: RFU PODN (11730768_x_at) / Fold change /veh PODN (11730768_x_at) / RFU LINC00158 (11744669_a_at) / Fold change /veh LINC00158 (11744669_a_at) / RFU DUSP10 (11751237_a_at) / Fold change /veh DUSP10 (11751237_a_at) / RFU ID3 (11757404_x_at) / Fold change /veh ID3 (11757404_x_at) / RFU PLEKHG5 (11737974_s_at) / Fold change /veh PLEKHG5 (11737974_s_at) / RFU LRRC4B (11730491_at) / Fold change /veh LRRC4B (11730491_at) / RFU GIMAP4 (11747438_a_at) / Fold change /veh GIMAP4 (11747438_a_at) / RFU KRT8 (11758183_x_at) / Fold change /veh KRT8 (11758183_x_at) / RFU CNN1 (11734310_a_at) / Fold change /veh CNN1 (11734310_a_at) / RFU VPS37D (11726825_at) / Fold change /veh VPS37D (11726825_at) / RFU C10orf10 (11716522_x_at) / Fold change /veh C10orf10 (11716522_x_at) / RFU KIR2DL2 /// KIR2DL4 /// KIR2DL5A /// KIR2DL5B /// KIR2DS1 /// KIR2DS2 /// KIR2DS3 /// KIR2DS4 /// KIR3DL3 /// KIR3DL3 /// KIR3DS1 (11738374_at) / Fold change /veh KIR2DL2 /// KIR2DL4 /// KIR2DL5A /// KIR2DL5B /// KIR2DS1 /// KIR2DS2 /// KIR2DS3 /// KIR2DS4 /// KIR3DL3 /// KIR3DL3 /// KIR3DS1 (11738374_at) / RFU C1QL1 (11718748_at) / Fold change /veh C1QL1 (11718748_at) / RFU TMPRSS4 (11747572_a_at) / Fold change /veh TMPRSS4 (11747572_a_at) / RFU HAMP (11756126_x_at) / Fold change /veh HAMP (11756126_x_at) / RFU RNFT2 (11725882_a_at) / Fold change /veh RNFT2 (11725882_a_at) / RFU NR4A2 (11747474_a_at) / Fold change /veh NR4A2 (11747474_a_at) / RFU ABCC12 (11746883_a_at) / Fold change /veh ABCC12 (11746883_a_at) / RFU TMEM136 (11760407_x_at) / Fold change /veh TMEM136 (11760407_x_at) / RFU CLDN22 /// WWC2 (11732394_at) / Fold change /veh CLDN22 /// WWC2 (11732394_at) / RFU HLA-DPB1 (11760878_x_at) / Fold change /veh HLA-DPB1 (11760878_x_at) / RFU SPINT1 (11716480_a_at) / Fold change /veh SPINT1 (11716480_a_at) / RFU GAP43 (11754022_s_at) / Fold change /veh GAP43 (11754022_s_at) / RFU A4GNT (11735810_at) / Fold change /veh A4GNT (11735810_at) / RFU PRB3 (11715151_x_at) / Fold change /veh PRB3 (11715151_x_at) / RFU TUBB4B (11761932_at) / Fold change /veh TUBB4B (11761932_at) / RFU CAPN14 (11732068_a_at) / Fold change /veh CAPN14 (11732068_a_at) / RFU TMCC2 (11721928_a_at) / Fold change /veh TMCC2 (11721928_a_at) / RFU IRGQ (11745062_a_at) / Fold change /veh IRGQ (11745062_a_at) / RFU FAM174B (11720279_a_at) / Fold change /veh FAM174B (11720279_a_at) / RFU TMPRSS4 (11748680_a_at) / Fold change /veh TMPRSS4 (11748680_a_at) / RFU FAM212B (11763350_a_at) / Fold change /veh FAM212B (11763350_a_at) / RFU PLEKHG5 (11743358_a_at) / Fold change /veh PLEKHG5 (11743358_a_at) / RFU ZSCAN30 (11745921_a_at) / Fold change /veh ZSCAN30 (11745921_a_at) / RFU CMKLR1 (11741424_a_at) / Fold change /veh CMKLR1 (11741424_a_at) / RFU LOC101060620 /// MAPK8IP1 (11723275_at) / Fold change /veh LOC101060620 /// MAPK8IP1 (11723275_at) / RFU SPTSSB (11747773_x_at) / Fold change /veh SPTSSB (11747773_x_at) / RFU PRSS12 (11739890_at) / Fold change /veh PRSS12 (11739890_at) / RFU BIN1 (11741810_x_at) / Fold change /veh BIN1 (11741810_x_at) / RFU WNT11 (11732464_a_at) / Fold change /veh WNT11 (11732464_a_at) / RFU C10orf10 (11716521_a_at) / Fold change /veh C10orf10 (11716521_a_at) / RFU C5orf56 (11738089_at) / Fold change /veh C5orf56 (11738089_at) / RFU CYB561 (11721691_x_at) / Fold change /veh CYB561 (11721691_x_at) / RFU ANKRD19P (11752326_a_at) / Fold change /veh ANKRD19P (11752326_a_at) / RFU OR2T12 /// OR2T33 /// OR2T8 (11738714_s_at) / Fold change /veh OR2T12 /// OR2T33 /// OR2T8 (11738714_s_at) / RFU VCAN (11748164_a_at) / Fold change /veh VCAN (11748164_a_at) / RFU JSRP1 (11732532_at) / Fold change /veh JSRP1 (11732532_at) / RFU KRTAP10-11 (11738290_x_at) / Fold change /veh KRTAP10-11 (11738290_x_at) / RFU MYO3A (11730013_a_at) / Fold change /veh MYO3A (11730013_a_at) / RFU EBF3 (11725865_a_at) / Fold change /veh EBF3 (11725865_a_at) / RFU CAMK2N1 (11719241_x_at) / Fold change /veh CAMK2N1 (11719241_x_at) / RFU C5orf56 (11738088_a_at) / Fold change /veh C5orf56 (11738088_a_at) / RFU OLFML3 (11715873_a_at) / Fold change /veh OLFML3 (11715873_a_at) / RFU LOC100653217 /// NTM (11731650_a_at) / Fold change /veh LOC100653217 /// NTM (11731650_a_at) / RFU MAPK11 (11762145_a_at) / Fold change /veh MAPK11 (11762145_a_at) / RFU FIZ1 (11724087_x_at) / Fold change /veh FIZ1 (11724087_x_at) / RFU OASL (11726364_x_at) / Fold change /veh OASL (11726364_x_at) / RFU SOX15 (11748057_x_at) / Fold change /veh SOX15 (11748057_x_at) / RFU CD79A (11719716_a_at) / Fold change /veh CD79A (11719716_a_at) / RFU HIST1H1D (11736915_at) / Fold change /veh HIST1H1D (11736915_at) / RFU CASKIN2 (11723855_a_at) / Fold change /veh CASKIN2 (11723855_a_at) / RFU LOC730098 (11760151_x_at) / Fold change /veh LOC730098 (11760151_x_at) / RFU OR4N2 (11742367_at) / Fold change /veh OR4N2 (11742367_at) / RFU PRRT2 (11749266_a_at) / Fold change /veh PRRT2 (11749266_a_at) / RFU SNX32 (11753110_a_at) / Fold change /veh SNX32 (11753110_a_at) / RFU CDHR5 (11726645_a_at) / Fold change /veh CDHR5 (11726645_a_at) / RFU RCAN1 (11760418_a_at) / Fold change /veh RCAN1 (11760418_a_at) / RFU FAM167A (11723789_a_at) / Fold change /veh FAM167A (11723789_a_at) / RFU FAM26E (11764081_at) / Fold change /veh FAM26E (11764081_at) / RFU ISYNA1 (11749810_s_at) / Fold change /veh ISYNA1 (11749810_s_at) / RFU ACY1 (11761880_at) / Fold change /veh ACY1 (11761880_at) / RFU 11764098_at / Fold change /veh 11764098_at / RFU SAMD14 (11745864_x_at) / Fold change /veh SAMD14 (11745864_x_at) / RFU NPB (11741838_a_at) / Fold change /veh NPB (11741838_a_at) / RFU TMPRSS6 (11731388_a_at) / Fold change /veh TMPRSS6 (11731388_a_at) / RFU KRTAP10-2 (11738614_at) / Fold change /veh KRTAP10-2 (11738614_at) / RFU ARHGAP8 /// PRR5-ARHGAP8 (11727945_x_at) / Fold change /veh ARHGAP8 /// PRR5-ARHGAP8 (11727945_x_at) / RFU KRTAP5-7 /// NADSYN1 (11734609_at) / Fold change /veh KRTAP5-7 /// NADSYN1 (11734609_at) / RFU RASL12 (11751679_a_at) / Fold change /veh RASL12 (11751679_a_at) / RFU CDKN2B (11736163_a_at) / Fold change /veh CDKN2B (11736163_a_at) / RFU PRF1 (11729649_at) / Fold change /veh PRF1 (11729649_at) / RFU, ZNF638 /// ZNF638-IT1 / Fold change vs veh, ZNF638 /// ZNF638-IT1 / RFU, PANK3 / Fold change vs veh, PANK3 / RFU, SH3YL1 / Fold change vs veh, SH3YL1 / RFU, ZEB2 / Fold change vs veh, ZEB2 / RFU, NRIP1 / Fold change vs veh, NRIP1 / RFU, PTTG1IP / Fold change vs veh, PTTG1IP / RFU, CAPN2 / Fold change vs veh, CAPN2 / RFU, MED14 / Fold change vs veh, MED14 / RFU, SNORA58 / Fold change vs veh, SNORA58 / RFU, C1orf63 / Fold change vs veh, C1orf63 / RFU, LRRFIP1 / Fold change vs veh, LRRFIP1 / RFU, NDUFAF7 / Fold change vs veh, NDUFAF7 / RFU, SLC12A2 / Fold change vs veh, SLC12A2 / RFU, IBTK / Fold change vs veh, IBTK / RFU, ESF1 / Fold change vs veh, ESF1 / Fold change vs veh, TMEM50B / RFU, TAOK1 / Fold change vs veh, TAOK1 / RFU, ACBD3 / Fold change vs veh, ACBD3 / RFU, TMA16 / Fold change vs veh, TMA16 / RFU, RWDD3 / Fold change vs veh, RWDD3 / RFU, BCAT1 / Fold change vs veh, BCAT1 / RFU, EDEM3 / Fold change vs veh, EDEM3 / RFU, TMEM33 / Fold change vs veh, TMEM33 / RFU, WDR75 / Fold change vs veh, WDR75 / RFU, AHCTF1 / Fold change vs veh, AHCTF1 / RFU, TFRC / Fold change vs veh, TFRC / RFU, ZDHHC17 / Fold change vs veh, ZDHHC17 / RFU, NOM1 / Fold change vs veh, NOM1 / RFU, ARL8B / Fold change vs veh, ARL8B / RFU, ZBTB11 / Fold change vs veh, ZBTB11 / RFU, TAMM41 / Fold change vs veh, TAMM41 / RFU, KIAA1704 /// LOC100996395 / Fold change vs veh, KIAA1704 /// LOC100996395 / RFU, ING1 / Fold change vs veh, ING1 / RFU, TRMT61B / Fold change vs veh, TRMT61B / RFU, FUBP3 / Fold change vs veh, FUBP3 / RFU, TP53 / Fold change vs veh, TP53 / RFU, TNKS2 / Fold change vs veh, TNKS2 / RFU, ZFP14 / Fold change vs veh, ZFP14 / RFU, ACTR2 / Fold change vs veh, ACTR2 / RFU, PPP3R1 / Fold change vs veh, PPP3R1 / RFU, PIK3R1 / Fold change vs veh, PIK3R1 / RFU, HNRNPA1 / Fold change vs veh, HNRNPA1 / RFU, RNF170 / Fold change vs veh, RNF170 / RFU, ZNF28 / Fold change vs veh, ZNF28 / RFU, RNGTT / Fold change vs veh, RNGTT / RFU, OGT / Fold change vs veh, OGT / RFU, BRD1 / Fold change vs veh, BRD1 / RFU, MARS / Fold change vs veh, MARS / RFU, ZNF655 / Fold change vs veh, ZNF655 / RFU, FAHD1 / Fold change vs veh, FAHD1 / RFU, BDP1 / Fold change vs veh, BDP1 / RFU, LRRCC1 / Fold change vs veh, LRRCC1 / RFU, ARID1A / Fold change vs veh, ARID1A / RFU, ZNF146 / Fold change vs veh, ZNF146 / RFU, ZNF330 / Fold change vs veh, ZNF330 / RFU, GPN3 / Fold change vs veh, GPN3 / RFU, C9orf123 / Fold change vs veh, C9orf123 / RFU, N4BP2L2 / Fold change vs veh, N4BP2L2 / RFU, ARFIP1 / Fold change vs veh, ARFIP1 / RFU, FAM179B / Fold change vs veh, FAM179B / RFU, BCL10 / Fold change vs veh, BCL10 / RFU, UHRF1BP1L / Fold change vs veh, UHRF1BP1L / RFU, BET1 / Fold change vs veh, BET1 / RFU, CNOT2 / Fold change vs veh, CNOT2 / RFU, ZNF268 / Fold change vs veh, ZNF268 / Fold change vs veh, ZNF507 / RFU, DGCR2 / Fold change vs veh, DGCR2 / RFU, WDSUB1 / Fold change vs veh, WDSUB1 / Fold change vs veh, HSP90B1 /// MIR3652 / RFU, ADSS / Fold change vs veh, ADSS / RFU, GK / Fold change vs veh, GK / RFU, ZNF148 / Fold change vs veh, ZNF148 / RFU, TAF9 / Fold change vs veh, TAF9 / RFU, SLC1A5 / Fold change vs veh, SLC1A5 / RFU, SLMO2 / Fold change vs veh, SLMO2 / RFU, ABCC4 / Fold change vs veh, ABCC4 / RFU, LOC101060439 /// RAP1B / Fold change vs veh, LOC101060439 /// RAP1B / RFU, RFX7 / Fold change vs veh, RFX7 / RFU, GTPBP10 / Fold change vs veh, GTPBP10 / RFU, CNEP1R1 / Fold change vs veh, CNEP1R1 / RFU, BIVM-ERCC5 /// ERCC5 / Fold change vs veh, BIVM-ERCC5 /// ERCC5 / RFU, ILF3 / Fold change vs veh, ILF3 / RFU 11762660_at / Fold change /veh 11762660_at / RFU VCAN (11757783_s_at) / Fold change /veh VCAN (11757783_s_at) / RFU DDX43 (11728927_at) / Fold change /veh DDX43 (11728927_at) / RFU KRT8 (11758188_x_at) / Fold change /veh KRT8 (11758188_x_at) / RFU NKD1 (11759106_at) / Fold change /veh NKD1 (11759106_at) / RFU SRD5A1 (11742802_a_at) / Fold change /veh SRD5A1 (11742802_a_at) / RFU TPSAB1 /// TPSB2 (11721975_s_at) / Fold change /veh TPSAB1 /// TPSB2 (11721975_s_at) / RFU GSTM3 (11746129_a_at) / Fold change /veh GSTM3 (11746129_a_at) / RFU IL23R (11737362_x_at) / Fold change /veh IL23R (11737362_x_at) / RFU TMEM51 (11727254_a_at) / Fold change /veh TMEM51 (11727254_a_at) / RFU PIWIL2 (11732686_x_at) / Fold change /veh PIWIL2 (11732686_x_at) / RFU ORM1 (11744905_x_at) / Fold change /veh ORM1 (11744905_x_at) / RFU CCDC152 (11743942_at) / Fold change /veh CCDC152 (11743942_at) / RFU ECM1 (11717891_a_at) / Fold change /veh ECM1 (11717891_a_at) / RFU IL23R (11748794_a_at) / Fold change /veh IL23R (11748794_a_at) / RFU TNFAIP8L3 (11732012_x_at) / Fold change /veh TNFAIP8L3 (11732012_x_at) / RFU MBOAT4 (11741988_at) / Fold change /veh MBOAT4 (11741988_at) / RFU 11764193_at / Fold change /veh 11764193_at / RFU TMEM53 (11763286_at) / Fold change /veh TMEM53 (11763286_at) / RFU MAGEB2 (11727129_at) / Fold change /veh MAGEB2 (11727129_at) / RFU TMEM200A (11744735_a_at) / Fold change /veh TMEM200A (11744735_a_at) / RFU CCDC152 (11751479_a_at) / Fold change /veh CCDC152 (11751479_a_at) / RFU FAM211A (11726209_a_at) / Fold change /veh FAM211A (11726209_a_at) / RFU RGS16 (11746705_a_at) / Fold change /veh RGS16 (11746705_a_at) / RFU VCAN (11755009_s_at) / Fold change /veh VCAN (11755009_s_at) / RFU RHOB (11743442_s_at) / Fold change /veh RHOB (11743442_s_at) / RFU RGS16 (11720943_a_at) / Fold change /veh RGS16 (11720943_a_at) / RFU RGS16 (11720944_at) / Fold change /veh RGS16 (11720944_at) / RFU, VPS4B / Fold change vs veh, VPS4B / RFU, CREB1 / Fold change vs veh, CREB1 / RFU, DNAJC13 / Fold change vs veh, DNAJC13 / RFU, GNAQ / Fold change vs veh, GNAQ / RFU, CDK5R1 / Fold change vs veh, CDK5R1 / RFU, ZRANB3 / Fold change vs veh, ZRANB3 / RFU, CUL4A / Fold change vs veh, CUL4A / RFU, CCNY / Fold change vs veh, CCNY / RFU, UFL1 / Fold change vs veh, UFL1 / RFU, COG3 / Fold change vs veh, COG3 / RFU, DIAPH2 / Fold change vs veh, DIAPH2 / RFU, SKA2 / Fold change vs veh, SKA2 / RFU, AFF3 / Fold change vs veh, AFF3 / RFU, LMF1 / Fold change vs veh, LMF1 / RFU, IPO11 / Fold change vs veh, IPO11 / RFU, DFFB / Fold change vs veh, DFFB / RFU, FOXP1 / Fold change vs veh, FOXP1 / RFU, CARD8 / Fold change vs veh, CARD8 / RFU, STRN3 / Fold change vs veh, STRN3 / RFU, ADK / Fold change vs veh, ADK / RFU, RASSF2 / Fold change vs veh, RASSF2 / RFU, WIPF1 / Fold change vs veh, WIPF1 / RFU, LARP1B / Fold change vs veh, LARP1B / RFU, RASA1 / Fold change vs veh, RASA1 / RFU, RB1 / Fold change vs veh, RB1 / RFU, PPFIA1 / Fold change vs veh, PPFIA1 / RFU, MAT2A / Fold change vs veh, MAT2A / RFU, CCT5 / Fold change vs veh, CCT5 / RFU, WDR92 / Fold change vs veh, WDR92 / RFU, CUX1 / Fold change vs veh, CUX1 / RFU, TTC7A / Fold change vs veh, TTC7A / RFU, TMEM135 / Fold change vs veh, TMEM135 / RFU, DEPTOR / Fold change vs veh, DEPTOR / RFU, CPM / Fold change vs veh, CPM / RFU, DNAJB6 / Fold change vs veh, DNAJB6 / RFU, CACNA2D3 / Fold change vs veh, CACNA2D3 / RFU, DTX4 / Fold change vs veh, DTX4 / RFU, TFCP2 / Fold change vs veh, TFCP2 / RFU, GMCL1 /// GMCL1P1 / Fold change vs veh, GMCL1 /// GMCL1P1 / RFU, AEBP2 / Fold change vs veh, AEBP2 / RFU, SNHG1 /// SNORD22 /// SNORD25 /// SNORD26 /// SNORD27 /// SNORD28 /// SNORD29 /// SNORD31 / Fold change vs veh, SNHG1 /// SNORD22 /// SNORD25 /// SNORD26 /// SNORD27 /// SNORD28 /// SNORD29 /// SNORD31 / Fold change (Aza/veh), C12orf56 (ProbeSet 11735607_a_at) / Fold change (ACY-1035/veh), C12orf56 (ProbeSet 11735607_a_at) / Fold change (Aza/veh), FGFR1OP (ProbeSet 11751329_s_at) / Fold change (ACY-1035/veh), FGFR1OP (ProbeSet 11751329_s_at) / Fold change (Aza/veh), VPS36 (ProbeSet 11739960_a_at) / Fold change (ACY-1035/veh), VPS36 (ProbeSet 11739960_a_at) / RFU SYPL1 (11715823_x_at) / Fold change /veh SYPL1 (11715823_x_at) / RFU IGFBP7 (11715501_s_at) / Fold change /veh IGFBP7 (11715501_s_at) / RFU REEP3 (11722064_at) / Fold change /veh REEP3 (11722064_at) / RFU IGLL1 (11728026_x_at) / Fold change /veh IGLL1 (11728026_x_at): dose or concentration left out as unconfirmed
Conditions: ProbeSet 11759095_at; LIST D

Question: Which “RFU, GNAQ” value does the source give for `Nc1ncn([C@@H]2O[C@H](CO)[C@@H](O)[C@H]2O)c(=O)n1` [azacitidine] here?
Answer: 765.32 RFU
